# Reference: ChEMBL document CHEMBL5260833, “An overview of quinazolines: Pharmacological significance and recent developments” (Eur J Med Chem, 2018)
# Columns and labels:
# [1] = CNS toxicity in po dosed mouse assessed as depression in CNS; type: organism-based; conditions: in vivo
# Staphylococcus aureus [2] = assay: Antimicrobial activity against Staphylococcus aureus assessed as bacterial growth inhibition; type: functional
# Micrococcus luteus = assay: Antimicrobial activity against Micrococcus luteus assessed as bacterial growth inhibition; type: functional
# [3] = test system: Staphylococcus saprophyticus; assay: Antimicrobial activity against Staphylococcus saprophyticus assessed as bacterial growth inhibition; type: functional
# [4] = test system: Staphylococcus epidermidis; assay: Antimicrobial activity against Staphylococcus epidermidis assessed as bacterial growth inhibition; type: functional
# Bacillus subtilis = assay: Antimicrobial activity against Bacillus subtilis assessed as bacterial growth inhibition; type: functional
# Escherichia coli [5] = assay: Antimicrobial activity against Escherichia coli assessed as bacterial growth inhibition; type: functional
# Klebsiella oxytoca = assay: Antimicrobial activity against Klebsiella oxytoca assessed as bacterial growth inhibition; type: functional
# Proteus vulgaris = assay: Antimicrobial activity against Proteus vulgaris assessed as bacterial growth inhibition; type: functional
# Proteus mirabilis = assay: Antimicrobial activity against Proteus mirabilis assessed as bacterial growth inhibition; type: functional
# Citrobacter freundii = assay: Antimicrobial activity against Citrobacter freundii assessed as bacterial growth inhibition; type: functional
# Pseudomonas aeruginosa = assay: Antimicrobial activity against Pseudomonas aeruginosa assessed as bacterial growth inhibition; type: functional
# Candida albicans = assay: Antimicrobial activity against Candida albicans assessed as bacterial growth inhibition; type: functional
# Mycolicibacterium phlei = assay: Antimicrobial activity against Mycobacterium phlei assessed as bacterial growth inhibition; type: functional
# Escherichia coli [6] = assay: Antibacterial activity against Escherichia coli assessed as zone of inhibition at 100 ppm; type: functional; conditions: read-out: IZ
# Staphylococcus aureus [7] = assay: Antibacterial activity against Staphylococcus aureus assessed as zone of inhibition at 100 ppm; type: functional; conditions: read-out: IZ
# Homo sapiens [8] = organism: Homo sapiens; assay: Immunosuppressive activity in human T cell; type: functional, organism-based
# Homo sapiens [9] = organism: Homo sapiens; assay: Immunosuppressive activity in human B cell; type: functional, organism-based
# Mus musculus = assay: Analgesic activity in […] albino mouse at 20 mg/kg, po measured after 2 hrs by Tail-Flick technique relative to control; type: functional
structure (smiles),measurement,setting,value
CC(=O)Nc1ccc2nc(CO)n(-c3ccccc3C)c(=O)c2c1,LD50,[1],> 1000 mg/kg
CCOC(=O)Oc1ccc(-n2c(/C=C/c3ccc(Cl)cc3)nc3cc([N+](=O)[O-])ccc3c2=O)cc1,MIC,Staphylococcus aureus [2],125 µg/mL
same,MIC,Micrococcus luteus,125 µg/mL
same,MIC,[3],125 µg/mL
same,MIC,[4],125 µg/mL
same,MIC,Bacillus subtilis,125 µg/mL
same,MIC,Escherichia coli [5],125 µg/mL
same,MIC,Klebsiella oxytoca,125 µg/mL
same,MIC,Proteus vulgaris,125 µg/mL
same,MIC,Proteus mirabilis,125 µg/mL
same,MIC,Citrobacter freundii,125 µg/mL
same,MIC,Pseudomonas aeruginosa,125 µg/mL
same,MIC,Candida albicans,125 µg/mL
same,MIC,Mycolicibacterium phlei,125 µg/mL
Cc1nc2ccc(Br)cc2c(=O)n1/N=C/c1cc(I)cc(I)c1O,zone of inhibition at 100 µg/mL,Escherichia coli [6],14 mm
same,zone of inhibition at 100 µg/mL,Staphylococcus aureus [7],16 mm
CC(=O)Nc1ccc2nc(CSCC(NC(C)=O)C(=O)O)n(-c3ccccc3C)c(=O)c2c1 (stereo not given),LD50,[1],> 1000 mg/kg
O=c1c2ccc([N+](=O)[O-])cc2nc(/C=C/c2ccc(Cl)cc2)n1-c1ccc(OCC2CO2)cc1 (stereo not given),MIC,Staphylococcus aureus [2],125 µg/mL
same,MIC,Micrococcus luteus,125 µg/mL
same,MIC,[3],125 µg/mL
same,MIC,[4],125 µg/mL
same,MIC,Bacillus subtilis,125 µg/mL
same,MIC,Escherichia coli [5],125 µg/mL
same,MIC,Klebsiella oxytoca,125 µg/mL
same,MIC,Proteus vulgaris,125 µg/mL
same,MIC,Proteus mirabilis,125 µg/mL
same,MIC,Citrobacter freundii,125 µg/mL
same,MIC,Pseudomonas aeruginosa,125 µg/mL
same,MIC,Candida albicans,125 µg/mL
same,MIC,Mycolicibacterium phlei,125 µg/mL
Nc1nc2c(c(=O)[nH]1)C[C@@H](CCc1ccc(C(=O)N[C@@H](C[C@@H](F)C(=O)O)C(=O)O)cc1)CN2,IC50,Homo sapiens [8],2300 nM
same,IC50,Homo sapiens [9],2930 nM
Cc1nc2ccc(Br)cc2c(=O)n1/N=C/c1cc(Cl)cc(Cl)c1O,zone of inhibition at 100 µg/mL,Escherichia coli [6],14 mm
same,zone of inhibition at 100 µg/mL,Staphylococcus aureus [7],16 mm
Cc1nc2ccc(Br)cc2c(=O)n1/N=C/c1cc(Br)cc(Br)c1O,zone of inhibition at 100 µg/mL,Escherichia coli [6],14 mm
same,zone of inhibition at 100 µg/mL,Staphylococcus aureus [7],16 mm
O=c1c2ccc(Cl)cc2nc(/C=C/c2ccc(Cl)cc2)n1-c1ccc(O)cc1,MIC,Staphylococcus aureus [2],125 µg/mL
same,MIC,Micrococcus luteus,125 µg/mL
same,MIC,[3],125 µg/mL
same,MIC,[4],125 µg/mL
same,MIC,Bacillus subtilis,125 µg/mL
same,MIC,Escherichia coli [5],125 µg/mL
same,MIC,Klebsiella oxytoca,125 µg/mL
same,MIC,Proteus vulgaris,125 µg/mL
same,MIC,Proteus mirabilis,125 µg/mL
same,MIC,Citrobacter freundii,125 µg/mL
same,MIC,Pseudomonas aeruginosa,125 µg/mL
same,MIC,Candida albicans,125 µg/mL
same,MIC,Mycolicibacterium phlei,125 µg/mL
Cc1nc2ccc(I)cc2c(=O)n1/N=C/c1cc(I)cc(I)c1O,zone of inhibition at 100 µg/mL,Escherichia coli [6],14 mm
same,zone of inhibition at 100 µg/mL,Staphylococcus aureus [7],16 mm
O=c1c2ccc(Cl)cc2nc(/C=C/c2ccc(Cl)cc2)n1-c1ccc(OCC(O)CN2CCCCC2)cc1 (stereo not given),MIC,Staphylococcus aureus [2],125 µg/mL
same,MIC,Micrococcus luteus,125 µg/mL
same,MIC,[3],125 µg/mL
same,MIC,[4],125 µg/mL
same,MIC,Bacillus subtilis,125 µg/mL
same,MIC,Escherichia coli [5],125 µg/mL
same,MIC,Klebsiella oxytoca,125 µg/mL
same,MIC,Proteus vulgaris,125 µg/mL
same,MIC,Proteus mirabilis,125 µg/mL
same,MIC,Citrobacter freundii,125 µg/mL
same,MIC,Pseudomonas aeruginosa,125 µg/mL
same,MIC,Candida albicans,125 µg/mL
same,MIC,Mycolicibacterium phlei,125 µg/mL
O=c1c2ccc(Cl)cc2nc(/C=C/c2ccc(Cl)cc2)n1-c1ccc(OCC2CO2)cc1 (stereo not given),MIC,Staphylococcus aureus [2],125 µg/mL
same,MIC,Micrococcus luteus,125 µg/mL
same,MIC,[3],125 µg/mL
same,MIC,[4],125 µg/mL
same,MIC,Bacillus subtilis,125 µg/mL
same,MIC,Escherichia coli [5],125 µg/mL
same,MIC,Klebsiella oxytoca,125 µg/mL
same,MIC,Proteus vulgaris,125 µg/mL
same,MIC,Proteus mirabilis,125 µg/mL
same,MIC,Citrobacter freundii,125 µg/mL
same,MIC,Pseudomonas aeruginosa,125 µg/mL
same,MIC,Candida albicans,125 µg/mL
same,MIC,Mycolicibacterium phlei,125 µg/mL
Cc1nc2ccccc2c(=O)n1NC(=S)N1CCCC1,Activity,Mus musculus,65%
Cc1nc2ccc(CN(C)c3ccc(C(=O)N[C@@H](C[C@@H](F)C(=O)O)C(=O)O)s3)cc2c(=O)[nH]1,IC50,Homo sapiens [8],5.67 nM
same,IC50,Homo sapiens [9],8.08 nM
CCC(CC)=NNC1=Nc2ccccc2C(=O)C1c1ccccc1 (stereo not given),Activity,Mus musculus,72%
O=c1c2ccc(Cl)cc2nc(/C=C/c2ccccc2[N+](=O)[O-])n1-c1ccc(OCC2CO2)cc1 (stereo not given),MIC,Staphylococcus aureus [2],125 µg/mL
same,MIC,Micrococcus luteus,125 µg/mL
same,MIC,[3],125 µg/mL
same,MIC,[4],125 µg/mL
same,MIC,Bacillus subtilis,125 µg/mL
same,MIC,Escherichia coli [5],125 µg/mL
same,MIC,Klebsiella oxytoca,125 µg/mL
same,MIC,Proteus vulgaris,125 µg/mL
same,MIC,Proteus mirabilis,125 µg/mL
same,MIC,Citrobacter freundii,125 µg/mL
same,MIC,Pseudomonas aeruginosa,125 µg/mL
same,MIC,Candida albicans,125 µg/mL
same,MIC,Mycolicibacterium phlei,125 µg/mL
CC(=O)Nc1ccc2nc(CF)n(-c3ccccc3C)c(=O)c2c1,LD50,[1],> 1000 mg/kg
CC(=O)Nc1ccc2nc(CF)n(-c3ccccc3CO)c(=O)c2c1,LD50,[1],> 1000 mg/kg
CC(=O)Nc1ccc2nc(CS(C)(=O)=O)n(-c3ccccc3C)c(=O)c2c1,LD50,[1],> 1000 mg/kg
CCN(CC)C(=S)Nn1c(-c2ccccc2)nc2ccccc2c1=O,Activity,Mus musculus,58%
O=C(CO)Nc1ccc2nc(CF)n(-c3ccccc3CO)c(=O)c2c1,LD50,[1],> 1000 mg/kg
COc1cc(/C=N/n2c(C)nc3ccc(Br)cc3c2=O)cc(I)c1O,zone of inhibition at 100 µg/mL,Escherichia coli [6],14 mm
same,zone of inhibition at 100 µg/mL,Staphylococcus aureus [7],16 mm
O=C([O-])Cc1ccccc1Nc1c(Cl)cccc1Cl.[Na+] [DICLOFENAC SODIUM],Activity,Mus musculus,60%
CCN(CC)C(=S)Nn1c(SC)nc2ccccc2c1=O,Activity,Mus musculus,67%
CC(=O)Nc1ccc2nc(C[S+](C)[O-])n(-c3ccccc3C)c(=O)c2c1 (stereo not given),LD50,[1],> 1000 mg/kg
CCC(CC)=NNC1=Nc2ccccc2C(=O)C1c1ccc(OC)cc1 (stereo not given),Activity,Mus musculus,64%
COc1cc(/C=N/n2c(C)nc3ccc(Br)cc3c2=O)cc(Br)c1O,zone of inhibition at 100 µg/mL,Escherichia coli [6],14 mm
same,zone of inhibition at 100 µg/mL,Staphylococcus aureus [7],16 mm
CCCCc1nc2ccccc2c(=O)n1NC(=S)N1CCCC1,Activity,Mus musculus,73%
CCCCNC(=O)Oc1ccc(-n2c(/C=C/c3ccc(Cl)cc3)nc3cc(Cl)ccc3c2=O)cc1,MIC,Staphylococcus aureus [2],125 µg/mL
same,MIC,Micrococcus luteus,125 µg/mL
same,MIC,[3],125 µg/mL
same,MIC,[4],125 µg/mL
same,MIC,Bacillus subtilis,125 µg/mL
same,MIC,Escherichia coli [5],125 µg/mL
same,MIC,Klebsiella oxytoca,125 µg/mL
same,MIC,Proteus vulgaris,125 µg/mL
same,MIC,Proteus mirabilis,125 µg/mL
same,MIC,Citrobacter freundii,125 µg/mL
same,MIC,Pseudomonas aeruginosa,125 µg/mL
same,MIC,Candida albicans,125 µg/mL
same,MIC,Mycolicibacterium phlei,125 µg/mL
O=c1c2ccc([N+](=O)[O-])cc2nc(/C=C/c2ccc(Cl)cc2)n1-c1ccc(O)cc1,MIC,Staphylococcus aureus [2],125 µg/mL
same,MIC,Micrococcus luteus,125 µg/mL
same,MIC,[3],125 µg/mL
same,MIC,[4],125 µg/mL
same,MIC,Bacillus subtilis,125 µg/mL
same,MIC,Escherichia coli [5],125 µg/mL
same,MIC,Klebsiella oxytoca,125 µg/mL
same,MIC,Proteus vulgaris,125 µg/mL
same,MIC,Proteus mirabilis,125 µg/mL
same,MIC,Citrobacter freundii,125 µg/mL
same,MIC,Pseudomonas aeruginosa,125 µg/mL
same,MIC,Candida albicans,125 µg/mL
same,MIC,Mycolicibacterium phlei,125 µg/mL
Cc1nc2ccc(I)cc2c(=O)n1/N=C/c1cc(Br)cc(Br)c1O,zone of inhibition at 100 µg/mL,Escherichia coli [6],14 mm
same,zone of inhibition at 100 µg/mL,Staphylococcus aureus [7],16 mm
CC/C(C)=N/n1c(S)nc2sc3c(c2c1=O)CCCC3,Activity,Mus musculus,72%
CCOC(=O)Oc1ccc(-n2c(/C=C/c3ccc(Cl)cc3)nc3cc(Cl)ccc3c2=O)cc1,MIC,Staphylococcus aureus [2],125 µg/mL
same,MIC,Micrococcus luteus,125 µg/mL
same,MIC,[3],125 µg/mL
same,MIC,[4],125 µg/mL
same,MIC,Bacillus subtilis,125 µg/mL
same,MIC,Escherichia coli [5],125 µg/mL
same,MIC,Klebsiella oxytoca,125 µg/mL
same,MIC,Proteus vulgaris,125 µg/mL
same,MIC,Proteus mirabilis,125 µg/mL
same,MIC,Citrobacter freundii,125 µg/mL
same,MIC,Pseudomonas aeruginosa,125 µg/mL
same,MIC,Candida albicans,125 µg/mL
same,MIC,Mycolicibacterium phlei,125 µg/mL
Cc1ccccc1-n1c(CF)nc2ccc(NC(=O)CO)cc2c1=O,LD50,[1],> 1000 mg/kg
COc1cc(/C=N/n2c(C)nc3ccc(I)cc3c2=O)cc(Br)c1O,zone of inhibition at 100 µg/mL,Escherichia coli [6],14 mm
same,zone of inhibition at 100 µg/mL,Staphylococcus aureus [7],16 mm
COc1cc(/C=N/n2c(C)nc3ccc(I)cc3c2=O)cc(I)c1O,zone of inhibition at 100 µg/mL,Escherichia coli [6],14 mm
same,zone of inhibition at 100 µg/mL,Staphylococcus aureus [7],16 mm
Cc1nc2ccc(I)cc2c(=O)n1/N=C/c1cc(Cl)cc(Cl)c1O,zone of inhibition at 100 µg/mL,Escherichia coli [6],14 mm
same,zone of inhibition at 100 µg/mL,Staphylococcus aureus [7],16 mm
O=c1c2ccc(Cl)cc2nc(/C=C/c2ccccc2[N+](=O)[O-])n1-c1ccc(O)cc1,MIC,Staphylococcus aureus [2],125 µg/mL
same,MIC,Micrococcus luteus,125 µg/mL
same,MIC,[3],125 µg/mL
same,MIC,[4],125 µg/mL
same,MIC,Bacillus subtilis,125 µg/mL
same,MIC,Escherichia coli [5],125 µg/mL
same,MIC,Klebsiella oxytoca,125 µg/mL
same,MIC,Proteus vulgaris,125 µg/mL
same,MIC,Proteus mirabilis,125 µg/mL
same,MIC,Citrobacter freundii,125 µg/mL
same,MIC,Pseudomonas aeruginosa,125 µg/mL
same,MIC,Candida albicans,125 µg/mL
same,MIC,Mycolicibacterium phlei,125 µg/mL
